{"source": "patent US20100204140A1", "about": "“USE OF A PEPTIDE AS A THERAPEUTIC AGENT” (priority 2007, published 2010)", "system": "drug-resistant Mycobacterium tuberculosis", "details": "peptide 10 micrograms per ml, seven days"}
{"smiles": "CSCC[C@H](NC(=O)[C@H](CC(C)C)NC(=O)CNC(=O)[C@@H](NC(=O)[C@H](Cc1ccccc1)NC(=O)[C@H](Cc1ccccc1)NC(=O)[C@H](CC(=O)O)NC(=O)[C@H](Cc1c[nH]cn1)NC(=O)[C@H](CCSC)NC(=O)[C@@H](N)CC(=O)O)C(C)C)C(N)=O", "note": "[Neurokinin B]", "values": [{"measurement": "% inhibition", "value": 0.0, "unit": "%"}]}
